In the Kinase Knowledgebase extract (Sharma et al. 2016):
Where “and” joins values, the source holds several entries; their conditions need not be identical. Equal entries are not always repeated.

How the values were obtained:
[1] = molecular target: PIK3CD (Human) (UniProt O00329); assay: Inhibition of PIK3CD Kinase Activity in Pfeiffer Cells
[2] = molecular target: PIK3CD (Human) (UniProt O00329); assay: Inhibition of PIK3CD Kinase Activity (Scintillation Proximity Assay)
[3] = molecular target: PIK3CD (Human) (UniProt O00329); assay: Inhibition of PIK3CD Kinase Activity (AlphaScreen Assay)
[4] = molecular target: PIK3CD (Human) (UniProt O00329); assay: Inhibition of PIK3CD Kinase Activity

Chain of PIK3CD (Human) (O00329 whole entry, looked up): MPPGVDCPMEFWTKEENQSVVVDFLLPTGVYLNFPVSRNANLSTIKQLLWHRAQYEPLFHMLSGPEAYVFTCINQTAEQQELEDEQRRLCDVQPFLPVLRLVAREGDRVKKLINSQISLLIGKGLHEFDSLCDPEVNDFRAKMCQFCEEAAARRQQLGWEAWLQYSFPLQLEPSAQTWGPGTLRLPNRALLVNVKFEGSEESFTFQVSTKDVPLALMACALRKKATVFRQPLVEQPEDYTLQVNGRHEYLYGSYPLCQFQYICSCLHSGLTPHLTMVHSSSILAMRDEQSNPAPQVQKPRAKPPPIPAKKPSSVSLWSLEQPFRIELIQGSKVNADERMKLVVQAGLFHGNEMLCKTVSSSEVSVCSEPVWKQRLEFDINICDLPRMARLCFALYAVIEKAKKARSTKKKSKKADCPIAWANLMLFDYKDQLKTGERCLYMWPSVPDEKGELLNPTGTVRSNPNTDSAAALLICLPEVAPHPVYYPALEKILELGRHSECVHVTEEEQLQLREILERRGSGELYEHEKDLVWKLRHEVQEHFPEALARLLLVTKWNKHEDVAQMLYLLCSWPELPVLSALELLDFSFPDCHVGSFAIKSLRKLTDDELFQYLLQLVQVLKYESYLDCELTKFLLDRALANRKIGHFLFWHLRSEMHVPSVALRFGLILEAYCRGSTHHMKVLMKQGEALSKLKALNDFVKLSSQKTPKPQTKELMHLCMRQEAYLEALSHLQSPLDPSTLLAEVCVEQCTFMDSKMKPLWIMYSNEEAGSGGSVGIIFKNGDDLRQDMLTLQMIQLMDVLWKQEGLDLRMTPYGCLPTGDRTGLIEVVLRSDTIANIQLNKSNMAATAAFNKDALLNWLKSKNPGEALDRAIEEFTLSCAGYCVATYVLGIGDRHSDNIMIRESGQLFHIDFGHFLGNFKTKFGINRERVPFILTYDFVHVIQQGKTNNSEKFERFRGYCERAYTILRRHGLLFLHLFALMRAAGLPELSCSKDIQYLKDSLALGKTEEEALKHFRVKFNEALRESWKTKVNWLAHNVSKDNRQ

Structure (SMILES)	IC50 [1]	IC50 [2]	other results
COc1cccc(-c2c(C(C)Nc3ncnc4[nH]cnc34)nc3cccc(C)n3c2=O)c1 (configuration not stated)	50 to 100 nM	–	–
Cc1cccc2nc(C(C)Nc3nc(N)nc4[nH]cnc34)c(-c3ccccc3)c(=O)n12 (configuration not stated)	–	< 50 nM	–
Cc1cccc2nc(C(C)Nc3ncnc4[nH]cnc34)c(-c3cccc(Cl)c3)c(=O)n12 (configuration not stated)	50 to 100 nM	–	–
Cc1csc2nc(C(C)Nc3ncnc4[nH]cnc34)c(-c3ccccn3)c(=O)n12 (configuration not stated)	–	–	IC50 [3]: 50 to 100 nM
Cc1ccccc1-c1c(C(C)Nc2ncnc3[nH]cnc23)nc2cccc(C)n2c1=O (configuration not stated)	–	100 to 500 nM	–
Cc1cccc2nc(C(C)Nc3ncnc4[nH]cnc34)c(-c3cccc(C#N)c3)c(=O)n12 (configuration not stated)	–	100 to 500 nM	–
Cc1csc2nc(C(C)Nc3nc(N)nc4[nH]cnc34)c(-c3cccc(F)c3)c(=O)n12 (configuration not stated)	–	–	IC50 [3]: < 50 nM
CCC(Nc1ncnc2[nH]cnc12)c1nc2cccc(C)n2c(=O)c1-c1cncc(F)c1 (configuration not stated)	–	–	IC50 [3]: 100 to 500 nM
Cc1cccc2nc(C(C)Nc3ncnc4[nH]cnc34)c(-c3ccc(F)c(F)c3)c(=O)n12 (configuration not stated)	500 to 1000 nM	–	–
CCC(Nc1ncnc2[nH]cnc12)c1nc2cccc(C)n2c(=O)c1-c1cn[nH]c1 (configuration not stated)	500 to 1000 nM	–	–
CC(Nc1nc(N)nc2[nH]cnc12)c1nc2sccn2c(=O)c1-c1ccccc1 (configuration not stated)	–	100 to 500 nM	–
Cc1cccc2nc(C(C)Nc3nc(N)nc4[nH]cnc34)c(-c3ccc(C#N)cc3)c(=O)n12 (configuration not stated)	500 to 1000 nM	–	–
Cc1cccc(-c2c(C(C)Nc3ncnc4[nH]cnc34)nc3cccc(C)n3c2=O)c1 (configuration not stated)	–	100 to 500 nM	–
CC(Nc1ncnc2[nH]cnc12)c1nc2scc(C(F)(F)F)n2c(=O)c1-c1cccc(F)c1 (configuration not stated)	–	50 to 100 nM	–
Cc1cccc2nc(C(C)Nc3ncnc4[nH]cnc34)c(-c3ccccc3)c(=O)n12 (configuration not stated)	50 to 100 nM	–	–
Cc1cccc2nc(C(C)Nc3nc(N)nc4[nH]cnc34)c(-c3ccccc3Cl)c(=O)n12 (configuration not stated)	–	< 50 nM	–

Structure (SMILES)	IC50 [1]	IC50 [2]	other results
Cc1cccc2nc(C(C)Nc3nc(N)nc4[nH]cnc34)c(-c3ccccc3F)c(=O)n12 (configuration not stated)	50 to 100 nM	–	–
Cc1cccc2nc(C(C)Nc3ncnc4[nH]cnc34)c(-c3ccccc3Cl)c(=O)n12 (configuration not stated)	50 to 100 nM	–	–
CCC(Nc1ncnc2[nH]cnc12)c1nc2cccc(C)n2c(=O)c1-c1cccnc1F (configuration not stated)	–	–	IC50 [3]: 100 to 500 nM
CCc1cccc2nc(C(C)Nc3ncnc4[nH]cnc34)c(-c3ccc(F)cc3)c(=O)n12 (configuration not stated)	100 to 500 nM	–	–
Cc1cccc2nc(C(C)Nc3ncnc4[nH]cnc34)c(-c3ccccc3F)c(=O)n12 (configuration not stated)	100 to 500 nM	–	–
Cc1csc2nc(C(C)Nc3ncnc4[nH]cnc34)c(-c3ccccc3Cl)c(=O)n12 (configuration not stated)	100 to 500 nM and < 50 nM	100 to 500 nM and < 50 nM	–
Cc1cccc2nc(C(C)n3cnc4c(N)ncnc43)c(-c3ccccc3)c(=O)n12 (configuration not stated)	–	–	IC50 [3]: 100 to 500 nM
Cc1csc2nc(C(C)Nc3nc(N)nc4[nH]cnc34)c(-c3ccccc3)c(=O)n12 (configuration not stated)	–	–	IC50 [3]: < 50 nM
Cc1cccc2nc(C(C)Nc3ncnc4[nH]cnc34)c(-c3cc(F)ccc3F)c(=O)n12 (configuration not stated)	50 to 100 nM	–	–
CCC(Nc1ncnc2[nH]cnc12)c1nc2cccc(C)n2c(=O)c1-c1ccccc1 (configuration not stated)	–	< 50 nM	–
Cc1csc2nc(C(C)Nc3ncnc4[nH]cnc34)c(-c3cscn3)c(=O)n12 (configuration not stated)	50 to 100 nM	–	–
Cc1cccc2nc(C(C)Nc3ncnc4[nH]cnc34)c(-c3cccc(F)c3)c(=O)n12 (configuration not stated)	–	< 50 nM	–
CCC(Nc1ncnc2[nH]cnc12)c1nc2cccc(C)n2c(=O)c1-c1cccc(F)c1 (configuration not stated)	100 to 500 nM	–	–
Cc1cccc2nc(C(C)Nc3ncnc4[nH]cnc34)c(-c3cccc(F)c3F)c(=O)n12 (configuration not stated)	100 to 500 nM	–	–
Cc1cccc2nc(C(C)Nc3nc(N)nc4[nH]cnc34)c(-c3cccc(C#N)c3)c(=O)n12 (configuration not stated)	100 to 500 nM	–	–
Cc1ccc(-c2c(C(C)Nc3ncnc4[nH]cnc34)nc3cccc(C)n3c2=O)cc1 (configuration not stated)	50 to 100 nM	–	–

Continued, in another order:

IC50 [1]	IC50 [2]	Structure (SMILES)	other results
50 to 100 nM	–	Cc1cccc2nc(C(C)Nc3ncnc4[nH]cnc34)c(-c3cc(F)cc(F)c3)c(=O)n12 (configuration not stated)	–
< 50 nM	–	Cc1csc2nc(C(C)Nc3nc(N)nc4[nH]cnc34)c(-c3cc(F)cc(Cl)c3)c(=O)n12 (configuration not stated)	–
–	50 to 100 nM	Cc1csc2nc(C(C)Nc3ncnc4[nH]cnc34)c(-c3cccc(F)c3F)c(=O)n12 (configuration not stated)	–
–	< 50 nM	Cc1cccc2nc(C(C)Nc3nc(N)nc4[nH]cnc34)c(-c3cccc(F)c3)c(=O)n12 (configuration not stated)	–
–	100 to 500 nM	CCc1cccc2nc(C(C)Nc3ncnc4[nH]cnc34)c(-c3cc(F)cc(F)c3)c(=O)n12 (configuration not stated)	–
< 50 nM and 100 to 500 nM	100 to 500 nM and < 50 nM	Cc1csc2nc(C(C)Nc3nc(N)nc4[nH]cnc34)c(-c3ccccc3Cl)c(=O)n12 (configuration not stated)	–
–	< 50 nM	Cc1csc2nc(C(C)Nc3nc(N)nc4[nH]cnc34)c(-c3cccc(F)c3F)c(=O)n12 (configuration not stated)	–
50 to 100 nM	–	Cc1csc2nc(C(C)Nc3ncnc4[nH]cnc34)c(-c3cc(F)cc(Cl)c3)c(=O)n12 (configuration not stated)	–
–	50 to 100 nM	CCC(Nc1ncnc2[nH]cnc12)c1nc2cccc(C)n2c(=O)c1-c1cc(F)cc(F)c1 (configuration not stated)	–
< 50 nM	< 50 nM	Cc1csc2nc(C(C)Nc3nc(N)nc4[nH]cnc34)c(-c3cc(F)cc(F)c3)c(=O)n12 (configuration not stated)	IC50 [3]: < 50 nM
–	100 to 500 nM	Cc1ccc(-c2c(C(C)Nc3ncnc4[nH]cnc34)nc3scc(C)n3c2=O)cc1 (configuration not stated)	–
–	< 50 nM	Cc1csc2nc(C(C)Nc3nc(N)nc4[nH]cnc34)c(-c3ccccc3F)c(=O)n12 (configuration not stated)	–
50 to 100 nM	–	Cc1csc2nc(C(C)Nc3ncnc4[nH]cnc34)c(-c3cccc(Cl)c3)c(=O)n12 (configuration not stated)	–
50 to 100 nM	–	Cc1cccc2nc(C(C)Nc3nc(N)nc4[nH]cnc34)c(-c3cccc(Cl)c3)c(=O)n12 (configuration not stated)	–
–	100 to 500 nM	Cc1csc2nc(C(C)Nc3ncnc4[nH]ccc34)c(-c3cc(F)cc(F)c3)c(=O)n12 (configuration not stated)	–
50 to 100 nM	–	Cc1csc2nc(C(C)Nc3ncnc4[nH]cnc34)c(-c3ccccc3F)c(=O)n12 (configuration not stated)	–
50 to 100 nM	–	Cc1cccc(-c2c(C(C)Nc3nc(N)nc4[nH]cnc34)nc3cccc(C)n3c2=O)c1 (configuration not stated)	–
< 50 nM	–	Cc1csc2nc(C(C)Nc3nc(N)nc4[nH]cnc34)c(-c3cccc(Cl)c3)c(=O)n12 (configuration not stated)	–
–	100 to 500 nM	Cc1csc2nc(C(C)Nc3ncnc4[nH]cnc34)c(-c3cncc(F)c3)c(=O)n12 (configuration not stated)	–
–	< 50 nM	Cc1csc2nc(C(C)Nc3ncnc4[nH]cnc34)c(-c3ccccc3)c(=O)n12 (configuration not stated)	–
< 50 nM	–	CCc1cccc2nc(C(C)Nc3nc(N)nc4[nH]cnc34)c(-c3cc(F)cc(F)c3)c(=O)n12 (configuration not stated)	–
–	100 to 500 nM	CC(Nc1nc(N)nc2[nH]cnc12)c1nc2ccccn2c(=O)c1-c1cc(F)cc(F)c1 (configuration not stated)	–
50 to 100 nM	–	Cc1csc2nc(C(C)Nc3ncnc4[nH]cnc34)c(-c3cc(F)ccc3F)c(=O)n12 (configuration not stated)	–
50 to 100 nM	–	Cc1csc2nc(C(C)Nc3nc(F)nc4[nH]cnc34)c(-c3cc(F)cc(F)c3)c(=O)n12 (configuration not stated)	–
100 to 500 nM	< 50 nM	Cc1csc2nc(C(C)Nc3ncnc4[nH]cnc34)c(-c3cc(F)cc(F)c3)c(=O)n12 (configuration not stated)	IC50 [3]: < 50 nM; IC50 [4]: < 50 nM
50 to 100 nM	–	Cc1csc2nc(C(C)Nc3ncnc4[nH]cnc34)c(-c3nccs3)c(=O)n12 (configuration not stated)	–
100 to 500 nM	–	Cc1csc2nc(C(C)Nc3ncnc4[nH]cnc34)c(-c3ccc(F)cc3)c(=O)n12 (configuration not stated)	–
–	50 to 100 nM	Cc1csc2nc(C(C)Nc3nc(N)nc4[nH]cnc34)c(-c3cncc(F)c3)c(=O)n12 (configuration not stated)	–
